Test results published in US10525056B2, “Procaspase-activating compounds and methods” (The Board of Trustees of the University of Illinois, priority 2011, dated 2020).
Read-outs that look alike come from different tables or passages of the source.

How the values were obtained:
[1] = tested on: U-937 human lymphoma cells; experiment: 72 Hour IC50 Cell Death Assay (sulforhodamine B); format: cell-based; conditions: read-out: 72-hour IC50 (μM), U-937 cells, 72 h treatment, average ± SEM of three experiments
Description: U-937 human lymphoma cells were plated into the wells of 96 well plate at a density of 15,000 cells per well in 99 μL of RPMI 1640 growth media with 10% FBS and 1% pen-strep. To each well was added 1 μL of compound stock solutions in DMSO at varying concentrations such that the cells were treated with concentrations between 0 μM and 100 μM compound. Each concentration was tested in quintuplicate per plate. In each plate 5 wells received 20 μM doxorubicin as a positive death control and 5 wells received […] as a negative control.
After the 72 hour incubation period, the plates were analyzed using a Sulforhodamine B assay (Vichai and Kirtikara, Nat Protoc 2006, 1, 1112-1116). Specifically, to each well of the plate 25 μL of a 50% (w/v) solution of trichloroacetic acid in H2O was added and the plates were incubated for 4 hours at 4° C. The plates were then washed gently with water five times. The plates were allowed to air dry after which 100 μL of a 0.057% (w/v) Sulforhodamine B in a 1% (v/v) acetic acid solution was added to each well for 30 minutes at room temperature. The plates were gently washed 5 times with 1% (v/v) acetic acid and air dried. 200 μL of 10 mM Tris base (pH 10.4) was added to each well and the plates were placed on an orbital shaker for thirty minutes. The level of SRB was quantified fluorometrically at excitation and emission wavelengths 488 and 585 nm, respectively, on a Molecular Devices plate reader and the percent cell death calculated and normalized to the positive control (100% cell death) and the negative control (0% cell death). The percent cell death was averaged for each compound concentration and plotted as a function of compound concentration. The data were fit to a logistical dose response curve using Table curve 2D and the IC50 value was calculated. The experiment was repeated three times and the average of the calculated IC50 values was reported. The standard error of the mean (SEM) was determined and reported for the triplicate experiments.

U-937 cells = experiment: Induction of apoptosis by hit compounds (Annexin V-FITC/propidium iodide flow cytometry); format: cell-based; conditions: Homo sapiens, 7.5 μM compound, 24 hours
Description: U-937 Cells (1 mL of 6×10^5 cells/mL) were treated with 10 μL of 750 μM DMSO solutions of the compounds to achieve a final concentration of 7.5 μM. […] The cells were harvested via centrifugation (200 g for 5 minutes), washed with PBS (2 mL), and resuspended in 450 μL Annexin V Binding Buffer. To each sample was added 3.5 μL of FITC conjugated Annexin V stain (Southern Biotech) and 3.5 μL of propidium iodide (Sigma) to a final concentration of 50 μg/mL. Cell populations were analyzed on a Benton Dickinson LSR II cell flow cytometer.

[2] = research dogs, for 48 hours; cited from earlier work
[3] = tested on: U-937 human lymphoma cells; experiment: Cell death assay for initial screen (Annexin V-FITC/propidium iodide flow cytometry); format: cell-based; conditions: U-937 cells, 20 μM compound, 24 hours
Description: Apoptotic cell death was assessed by flow cytometry, using Annexin V-FITC/propidium iodide staining.
Compound (2 μL of a 10 mM DMSO solution) was added in singlet by direct addition to a well containing 998 μL U-937 cells (1×10^6) in RPMI 1640 media (10% FBS) at a final compound concentration of 20 μM. […] The cells were double stained with FITC-Annexin V and propidium iodide and a cell population of at least 10,000 events was collected by the LSR II flow cytometer. Percent viable cells (Annexin V—negative, propidium iodide—negative) were determined using FCS Express software.

[4] = mice, for 48 hours; cited from earlier work

Row | SMILES | IC50 [1] [µM] | cytotoxicity at 7.5 µM (U-937 cells) [%] | serum concentration at doses that can be safely administered [2] [µM] | % cell death [3] [%] | serum concentration at doses that can be safely administered [4] [µM]
1 | COc1ccc(CN2CCN(CC(=O)N/N=C/c3cc(C(C)(C)C)cc(C(C)(C)C)c3O)CC2)cc1 [3{2,7}, N′-(3,5-di-tert-butyl-2-hydroxybenzylidene)-2-(4-(4-methoxybenzyl)piperazin-1-yl)acetohydrazide] | 1.8 ± 0.2 | 90 |  |  | 
2 | COc1ccc(OC)c(CN2CCN(CC(=O)N/N=C/c3cc(C(C)(C)C)cc(C(C)(C)C)c3O)CC2)c1 [3{4,7}, N′-(3,5-di-tert-butyl-2-hydroxybenzylidene)-2-(4-(2,5-dimethoxybenzyl)piperazin-1-yl)acetohydrazide] | 1.6 ± 0.2 | 53 |  |  | 
3 | CC(C)(C)c1cc(/C=N/NC(=O)CN2CCN(Cc3ccc(OCc4ccccc4)cc3)CC2)c(O)c(C(C)(C)C)c1 [3{18,7}, 2-(4-(4-(benzyloxy)benzyl)piperazin-1-yl)-N′-(3,5-di-tert-butyl-2-hydroxybenzylidene)acetohydrazide] | 1.4 ± 0.2 | 97 |  |  | 
4 | C=CCc1cccc(/C=N/NC(=O)CN2CCN(Cc3ccc(C(C)(C)C)cc3)CC2)c1O [3{20,24}, N′-(3-allyl-2-hydroxybenzylidene)-2-(4-(4-(tert-butyl)benzyl)piperazin-1-yl)acetohydrazide] | 0.9 ± 0.03 | 83 |  |  | 
5 | CC(C)(C)c1cc(/C=N/NC(=O)CN2CCN(Cc3ccc4ccccc4c3)CC2)c(O)c(C(C)(C)C)c1 [3{25,7}, N′-(3,5-di-tert-butyl-2-hydroxybenzylidene)-2-(4-(naphthalen-2-ylmethyl)piperazin-1-yl)acetohydrazide] | 1 ± 0.04 | 50 |  |  | 
6 | CCc1ccc(CN2CCN(CC(=O)N/N=C/c3cc(C(C)(C)C)cc(C(C)(C)C)c3O)CC2)cc1 [3{28,7}, N′-(3,5-di-tert-butyl-2-hydroxybenzylidene)-2-(4-(4-ethylbenzyl)piperazin-1-yl)acetohydrazide] | 2 ± 0.2 | 70 |  |  | 
7 | C=CCc1cccc(/C=N/NC(=O)CN2CCN(Cc3ccccc3)CC2)c1O [PAC-1] | 3.8 ± 0.4 | 21 | ~10 | ~50 | ~10
